# Measured values reported in patent US20240327334A1, “Covalent Inhibitors As Antiviral Agents” (Enanta Pharmaceuticals, Inc., priority 2022, published 2024).
# Molecular target: SARS-CoV-2 Papain-like (PLpro) protease (Severe acute respiratory syndrome coronavirus 2, UniProt P0DTD1)
# Test: SARS-CoV-2 Papain-like (PLpro) protease biochemical enzyme inhibition assay (ubiquitin-fluorophore substrate, Ub-R110)
# Conditions: Ub-R110 substrate; run in duplicate; read-out: PLpro IC50
row,SMILES,IC50 [µM]
1,C[C@@H](C#Cc1nccs1)NC(=O)C(=O)NCc1ccccc1C(=O)N[C@H](C)c1cc(F)cc(-c2cnn(C3CC3)c2)c1 [Example 495],< 0.1
2,Cc1cccnc1C#C[C@H](C)NC(=O)C(=O)NCc1ccccc1C(=O)NC1(c2ccc3nn(C)cc3c2)CC1 [Example 274],< 0.1
3,N#CCNC(=O)C(=O)NCc1ccccc1C(=O)NC1(c2cc(-c3cnn(C4CC4)c3)cc(C(F)(F)F)c2)CC1 [Example 470],< 0.1
4,C[C@@H](C#Cc1nccs1)NC(=O)C(=O)NCc1ccccc1C(=O)NC1(c2ccnc3c2ccn3C2CC2)CC1 [Example 402],< 0.1
5,O=C(NCC#Cc1ncccn1)C(=O)NCc1ccccc1C(=O)NC1(c2ccc3ccccc3c2)CC1 [Example 168],< 0.1
6,Cc1nn(C)c(C)c1-c1cc(F)cc(C2(NC(=O)c3ccccc3CNC(=O)C(=O)NCC#Cc3nccs3)CC2)c1 [Example 490],< 0.1
7,COc1cc(C2(NC(=O)c3ccccc3CNC(=O)C(=O)N[C@@H](C)C#Cc3ncccc3Cl)CC2)cc2cn(C3CC3)nc12 [Example 279],< 0.1
8,COC(=O)/C(C)=C/CNC(=O)C(=O)NCc1ccccc1C(=O)N[C@H](C)c1cccc2ccccc12 [Example 24],< 0.1
9,Cc1cc(C#N)ccc1C#CCNC(=O)C(=O)NCc1ccccc1C(=O)NC1(c2ccc3ccccc3c2)CC1 [Example 85],< 0.1
10,C#CCNC(=O)C(=O)NCc1ccccc1C(=O)NC1(c2cc(Cl)cc(-c3cnc(C(F)(F)F)nc3)c2)CC1 [Example 71],< 0.1
11,O=C(NCC#Cc1cnc(C2CC2)nc1)C(=O)NCc1ccccc1C(=O)NC1(c2ccc3ccccc3c2)CC1 [Example 180],1 to 10
12,COc1nccnc1C#CCNC(=O)C(=O)NCc1ccccc1C(=O)NC1(c2ccc3ccccc3c2)CC1 [Example 195],< 0.1
13,O=C(NCC#Cc1nccs1)C(=O)NCc1ccccc1C(=O)NC1(c2cc(F)cc(-c3cnn(C(F)F)c3)c2)CC1 [Example 81],< 0.1
14,Cc1cccnc1C#CCNC(=O)C(=O)NCc1ccccc1C(=O)NC1(c2cc(F)cc(-c3cnn(C4CC4)c3)c2)CC1 [Example 262],< 0.1
15,N#CCNC(=O)C(=O)NCc1ccccc1C(=O)NC1(c2cc(C(F)(F)F)nc3ccccc23)CC1 [Example 90],< 0.1
16,C[C@@H](C#Cc1ccccc1C#N)NC(=O)C(=O)NCc1ccccc1C(=O)NC1(c2ccc3nn(C)cc3c2)CC1 [Example 99],< 0.1
17,C=CC(=O)NNC(=O)C(=O)NCc1ccccc1C(=O)N[C@H](C)c1cccc2ccccc12 [Example 22],0.1 to 1
18,N#CCNC(=O)C(=O)NCc1ccccc1C(=O)NC1(c2cc(Cl)cc(-c3cnc(C4CC4)nc3)c2)CC1 [Example 74],< 0.1
19,O=C(NCC#Cc1nccs1)C(=O)NCc1ccccc1C(=O)NC1(c2cc(F)cc(-c3cnn(C4CC4)c3)c2)CC1 [Example 243],< 0.1
20,C#CCNC(=O)C(=O)NCc1ccccc1C(=O)NC1(c2cc(F)cc(-c3cnn(C4CC4)c3)c2)CC1 [Example 226],< 0.1
21,CN1CC(COc2ccc(CNC(=O)C(=O)NCC#N)c(C(=O)NC3(c4cccc5ccccc45)CC3)c2)C1 [Example 326],< 0.1

row,SMILES,IC50 [µM]
1,N#CCNC(=O)C(=O)NCc1ccccc1C(=O)NC1(c2cc(C(=O)NC3CC3)cc3ccccc23)CC1 [Example 117],< 0.1
2,N#CCNC(=O)C(=O)NCc1ccccc1C(=O)NC1(c2cccc3cc(F)ccc23)CC1 [Example 54],< 0.1
3,Cn1cc2cc(C3(NC(=O)c4ccccc4CNC(=O)C(=O)NCC#Cc4ccccc4C#N)CC3)ccc2n1 [Example 104],< 0.1
4,O=C(NCC#Cc1ccccn1)C(=O)NCc1ccccc1C(=O)NC1(c2cc(F)cc(-c3cnn(C4CC4)c3)c2)CC1 [Example 252],< 0.1
5,C[C@@H](NC(=O)c1ccccc1CNC(=O)C(=O)NCC#Cc1nccs1)c1cc(F)cc(-c2cnn(C(F)F)c2)c1 [Example 492],< 0.1
6,N#CCNC(=O)C(=O)NCc1ccccc1C(=O)NC1(c2cc(Cl)cc(-c3cnn(C(F)F)c3)c2)CC1 [Example 456],< 0.1
7,C[C@@H](NC(=O)c1ccccc1CNC(=O)C(=O)NCC#Cc1nccs1)c1cc(F)cc(-c2cnn(C3CC3)c2)c1 [Example 491],< 0.1
8,COC(=O)/C=C/CNC(=O)C(=O)NCc1ccccc1C(=O)NC1(c2cccc3ccccc23)CC1 [Example 4],< 0.1
9,Cn1cc2cc(C3(NC(=O)c4ccccc4CNC(=O)C(=O)NCC#Cc4ccc(C#N)cc4F)CC3)ccc2n1 [Example 103],< 0.1
10,C[C@@H](NC(=O)c1cc(F)c(F)cc1CNC(=O)C(=O)NCC#N)c1cccc2ccccc12 [Example 363],0.1 to 1
11,N#CCNC(=O)C(=O)NCc1ccc(C(=O)N2CC(F)(F)C2)cc1C(=O)NC1(c2ccc(F)c3ccccc23)CC1 [Example 62],< 0.1
12,Cc1nn(C)c(C)c1-c1cc(C2(NC(=O)c3ccccc3CNC(=O)C(=O)N[C@@H](C)C#Cc3nccs3)CC2)cc2ccccc12 [Example 298],< 0.1
13,N#CCNC(=O)C(=O)NCc1ccccc1C(=O)NC1(c2cc(-c3cnn(C4CC4)c3)cc3ncccc23)CC1 [Example 415],< 0.1
14,C[C@@H](C#Cc1nccs1)NC(=O)C(=O)NCc1ccccc1C(=O)NC1(c2cc(Cl)cc(-c3nccs3)c2)CC1 [Example 494],< 0.1
15,Cc1nn(C(F)F)c(C)c1-c1cc(F)cc(C2(NC(=O)c3ccccc3CNC(=O)C(=O)NCC#Cc3nccs3)CC2)c1 [Example 140],< 0.1
16,C[C@@H](C#Cc1ccc(C#N)cc1Cl)NC(=O)C(=O)NCc1ccccc1C(=O)NC1(c2ccc3nn(C)cc3c2)CC1 [Example 107],< 0.1
17,CC[C@@H](C#Cc1ncc(F)cn1)NC(=O)C(=O)NCc1ccccc1C(=O)NC1(c2ccc3nn(C)cc3c2)CC1 [Example 213],< 0.1
18,N#Cc1cc(-c2cnn(C3CC3)c2)c(F)c(C2(NC(=O)c3ccccc3CNC(=O)C(=O)NCC#Cc3nccs3)CC2)c1 [Example 301],< 0.1
19,O=C(NCC#Cc1ncc(F)s1)C(=O)NCc1ccccc1C(=O)NC1(c2ccc3ccccc3c2)CC1 [Example 179],< 0.1
20,O=C(NCC#Cc1nccs1)C(=O)NCc1ccccc1C(=O)NC1(c2cc(Cl)cc(-c3ncco3)c2)CC1 [Example 487],< 0.1
21,O=C(NC/C=C/C(=O)N1CCCC1)C(=O)NCc1ccccc1C(=O)NC1(c2cccc3ccccc23)CC1 [Example 557],< 0.1

# System: SARS-CoV-2 replicon
# Test: microbe, parasite or virus in culture
# Type: cell-based
# Conditions: Severe acute respiratory syndrome coronavirus 2, Huh-7
row,SMILES,EC50 [µM]
1,C[C@@H](C#Cc1nccs1)NC(=O)C(=O)NCc1ccccc1C(=O)N[C@H](C)c1cc(F)cc(-c2cnn(C3CC3)c2)c1 [Example 495],< 1
2,Cc1cccnc1C#C[C@H](C)NC(=O)C(=O)NCc1ccccc1C(=O)NC1(c2ccc3nn(C)cc3c2)CC1 [Example 274],< 1
3,N#CCNC(=O)C(=O)NCc1ccccc1C(=O)NC1(c2cc(-c3cnn(C4CC4)c3)cc(C(F)(F)F)c2)CC1 [Example 470],1 to 10
4,C[C@@H](C#Cc1nccs1)NC(=O)C(=O)NCc1ccccc1C(=O)NC1(c2ccnc3c2ccn3C2CC2)CC1 [Example 402],< 1
5,O=C(NCC#Cc1ncccn1)C(=O)NCc1ccccc1C(=O)NC1(c2ccc3ccccc3c2)CC1 [Example 168],< 1
6,Cc1nn(C)c(C)c1-c1cc(F)cc(C2(NC(=O)c3ccccc3CNC(=O)C(=O)NCC#Cc3nccs3)CC2)c1 [Example 490],< 1
7,COc1cc(C2(NC(=O)c3ccccc3CNC(=O)C(=O)N[C@@H](C)C#Cc3ncccc3Cl)CC2)cc2cn(C3CC3)nc12 [Example 279],< 1
8,COC(=O)/C(C)=C/CNC(=O)C(=O)NCc1ccccc1C(=O)N[C@H](C)c1cccc2ccccc12 [Example 24],< 1
9,Cc1cc(C#N)ccc1C#CCNC(=O)C(=O)NCc1ccccc1C(=O)NC1(c2ccc3ccccc3c2)CC1 [Example 85],< 1
10,C#CCNC(=O)C(=O)NCc1ccccc1C(=O)NC1(c2cc(Cl)cc(-c3cnc(C(F)(F)F)nc3)c2)CC1 [Example 71],< 1
11,O=C(NCC#Cc1cnc(C2CC2)nc1)C(=O)NCc1ccccc1C(=O)NC1(c2ccc3ccccc3c2)CC1 [Example 180],1 to 10
12,COc1nccnc1C#CCNC(=O)C(=O)NCc1ccccc1C(=O)NC1(c2ccc3ccccc3c2)CC1 [Example 195],< 1
13,O=C(NCC#Cc1nccs1)C(=O)NCc1ccccc1C(=O)NC1(c2cc(F)cc(-c3cnn(C(F)F)c3)c2)CC1 [Example 81],< 1
14,Cc1cccnc1C#CCNC(=O)C(=O)NCc1ccccc1C(=O)NC1(c2cc(F)cc(-c3cnn(C4CC4)c3)c2)CC1 [Example 262],< 1
15,N#CCNC(=O)C(=O)NCc1ccccc1C(=O)NC1(c2cc(C(F)(F)F)nc3ccccc23)CC1 [Example 90],1 to 10
16,C[C@@H](C#Cc1ccccc1C#N)NC(=O)C(=O)NCc1ccccc1C(=O)NC1(c2ccc3nn(C)cc3c2)CC1 [Example 99],< 1
17,C=CC(=O)NNC(=O)C(=O)NCc1ccccc1C(=O)N[C@H](C)c1cccc2ccccc12 [Example 22],> 10
18,N#CCNC(=O)C(=O)NCc1ccccc1C(=O)NC1(c2cc(Cl)cc(-c3cnc(C4CC4)nc3)c2)CC1 [Example 74],1 to 10
19,O=C(NCC#Cc1nccs1)C(=O)NCc1ccccc1C(=O)NC1(c2cc(F)cc(-c3cnn(C4CC4)c3)c2)CC1 [Example 243],< 1
20,C#CCNC(=O)C(=O)NCc1ccccc1C(=O)NC1(c2cc(F)cc(-c3cnn(C4CC4)c3)c2)CC1 [Example 226],< 1
21,CN1CC(COc2ccc(CNC(=O)C(=O)NCC#N)c(C(=O)NC3(c4cccc5ccccc45)CC3)c2)C1 [Example 326],1 to 10

row,SMILES,EC50 [µM]
1,N#CCNC(=O)C(=O)NCc1ccccc1C(=O)NC1(c2cc(C(=O)NC3CC3)cc3ccccc23)CC1 [Example 117],1 to 10
2,N#CCNC(=O)C(=O)NCc1ccccc1C(=O)NC1(c2cccc3cc(F)ccc23)CC1 [Example 54],< 1
3,Cn1cc2cc(C3(NC(=O)c4ccccc4CNC(=O)C(=O)NCC#Cc4ccccc4C#N)CC3)ccc2n1 [Example 104],< 1
4,O=C(NCC#Cc1ccccn1)C(=O)NCc1ccccc1C(=O)NC1(c2cc(F)cc(-c3cnn(C4CC4)c3)c2)CC1 [Example 252],< 1
5,C[C@@H](NC(=O)c1ccccc1CNC(=O)C(=O)NCC#Cc1nccs1)c1cc(F)cc(-c2cnn(C(F)F)c2)c1 [Example 492],< 1
6,N#CCNC(=O)C(=O)NCc1ccccc1C(=O)NC1(c2cc(Cl)cc(-c3cnn(C(F)F)c3)c2)CC1 [Example 456],1 to 10
7,C[C@@H](NC(=O)c1ccccc1CNC(=O)C(=O)NCC#Cc1nccs1)c1cc(F)cc(-c2cnn(C3CC3)c2)c1 [Example 491],< 1
8,COC(=O)/C=C/CNC(=O)C(=O)NCc1ccccc1C(=O)NC1(c2cccc3ccccc23)CC1 [Example 4],< 1
9,Cn1cc2cc(C3(NC(=O)c4ccccc4CNC(=O)C(=O)NCC#Cc4ccc(C#N)cc4F)CC3)ccc2n1 [Example 103],< 1
10,C[C@@H](NC(=O)c1cc(F)c(F)cc1CNC(=O)C(=O)NCC#N)c1cccc2ccccc12 [Example 363],< 1
11,N#CCNC(=O)C(=O)NCc1ccc(C(=O)N2CC(F)(F)C2)cc1C(=O)NC1(c2ccc(F)c3ccccc23)CC1 [Example 62],1 to 10
12,Cc1nn(C)c(C)c1-c1cc(C2(NC(=O)c3ccccc3CNC(=O)C(=O)N[C@@H](C)C#Cc3nccs3)CC2)cc2ccccc12 [Example 298],< 1
13,N#CCNC(=O)C(=O)NCc1ccccc1C(=O)NC1(c2cc(-c3cnn(C4CC4)c3)cc3ncccc23)CC1 [Example 415],1 to 10
14,C[C@@H](C#Cc1nccs1)NC(=O)C(=O)NCc1ccccc1C(=O)NC1(c2cc(Cl)cc(-c3nccs3)c2)CC1 [Example 494],< 1
15,Cc1nn(C(F)F)c(C)c1-c1cc(F)cc(C2(NC(=O)c3ccccc3CNC(=O)C(=O)NCC#Cc3nccs3)CC2)c1 [Example 140],< 1
16,C[C@@H](C#Cc1ccc(C#N)cc1Cl)NC(=O)C(=O)NCc1ccccc1C(=O)NC1(c2ccc3nn(C)cc3c2)CC1 [Example 107],< 1
17,CC[C@@H](C#Cc1ncc(F)cn1)NC(=O)C(=O)NCc1ccccc1C(=O)NC1(c2ccc3nn(C)cc3c2)CC1 [Example 213],< 1
18,N#Cc1cc(-c2cnn(C3CC3)c2)c(F)c(C2(NC(=O)c3ccccc3CNC(=O)C(=O)NCC#Cc3nccs3)CC2)c1 [Example 301],< 1
19,O=C(NCC#Cc1ncc(F)s1)C(=O)NCc1ccccc1C(=O)NC1(c2ccc3ccccc3c2)CC1 [Example 179],< 1
20,O=C(NCC#Cc1nccs1)C(=O)NCc1ccccc1C(=O)NC1(c2cc(Cl)cc(-c3ncco3)c2)CC1 [Example 487],< 1
21,O=C(NC/C=C/C(=O)N1CCCC1)C(=O)NCc1ccccc1C(=O)NC1(c2cccc3ccccc23)CC1 [Example 557],1 to 10
